Consider two sequences from US7417025B2, “Use of poly-α2,8-sialic acid mimetic peptides to modulate NCAM functions” (Centre National de la Recherche Scientifique, priority 2002, dated 2008).

The subject of one assay is chick retina axons. As to the kind of experiment: Intravitreal injection in chick embryo, retinal whole mount: axon fasciculation and guidance in vivo. The following applies: injected into chicken embryo eyes at E3, retina observed at E9. On the procedure: The dashed rectangle indicates the area from which photographs were taken. Arrows point toward the optic fissure. Axons of E9 chick retina injected at E3 with the reverse peptide (C,F) or the p65 peptide (D,G,E,H). Arrowheads show examples of axons that leave their fascicle and run perpendicularly to it.
Injections were performed as described in Monnier et al. (Developmental Biology, 2001, 229, 1-14). Briefly, a 2×2 cm window was cut into the shell over E3 chick embryos. One μl of Fast green with 10 mM of p65 or reverse peptide was injected into the right eye vitreous body using a capillary. After a five-days incubation at 37° C., (E8) retinae were dissected, spread onto nitrocellulose filters (MILIPORE), and fixed with 4% paraformaldehyde solution in PBS. Two small DiI (1,1′-dioctadecyl-3,3,3′,3′-tetramethylindocarbocyanine perchlorate) crystals were applied dorsally to the optic fissure. Retinae were stored in the dark at 37° C. for 10 days until the dye reached the axonal growth cones in the fissure, mounted in glycerol:PBS (9:1, v:v) and analysed using confocal microscopy.

For another assay, the system named is MenB anti-PSA antibody. As to the kind of experiment: Competitive binding to PSA-NCAM expressing cells (MenB). The procedure:
FIGS. 12B, 12C and 12D: competitive binding to PSA-NCAM expressing cells. B: pre-incubation of p65 (1 mM) or p66 (1 mM) with MenB anti-PSA antibody. C: 30H12 anti-PSA antibody without peptide. D: pre-incubation of p65 (1 mM) or p66 (1 mM) with 30H12 anti-PSA antibody.
The specificity of p65 and p66 peptides was tested in a competition assay using anti-PSA antibodies and PSA-NCAM expressing cells. […] The binding specificity was examined in greater detail by testing peptide recognition by another anti-PSA mononclonal antibody (MenB). […] Thus, p65 and p66 mimotopes appear to be specific for a unique (idiotypic) determinant.

Assay [1] relates to subventricular zone explants (neuronal precursors). Put plainly: Subventricular zone (SVZ) explant culture: cell migration in vitro. It counts as cell-based, mouse. The note with it: for Rate of migration of the neuronal precursors compared to the corresponding control peptide: FIG. 7, controls reverse p65 and p22. The procedure:
Cultures of SVZ explants were performed as described in Chazal et al., precited. Briefly, 1-day-old mice were killed by rapid decapitation. Brains were dissected out and sectionned by Vibratome (Leica). The SVZ from the lateral wall of the anterior lateral ventricle horn was dissected out in HBSS medium (LIFE TECHNOLOGIES) and cut into 200-300 μm diameter explants. The explants were mixed with Matrigel (BECKTON DICKINSON) and cultured in four-well dishes. After polymerisation, the gel was overlaid with 400 μl of serum-free medium containing B-27 supplement (LIFE TECHNOLOGIES), in the presence or the absence of 40 μM of peptides (p65, p66, reverse p65, p21 or p22) and 70 U of Endo N per milliliter.
After 48 h in culture, explants were examining directly (SVZ) or after overnight fixation with a 4% paraformaldehyde solution in PBS and immunostaining (DRGs). Observation was done using 2, 5×, 5×, 10× and 32× objectives (Axiovert 35M, ZEISS). Images were collected with a video camera (Cool View, PHOTONIC SCIENCE) and analysed using image-processing software (Visiolab1000, BIOCOM). Mean migration distance (calculated on five different experiments, including at least five explants per condition) or mean length of the longest neurite (calculated on two different experiments, including at least eight explants per condition), was the distance in micrometers between the explant edge and the border of the cell migration front. Four measurements were performed for each explant. The significance of the differences between the control and the different experimental conditions was calculated by Student's t test.

Assay [2] has as its system GFP positive SVZ cells migrating to the olfactory bulb. As to the kind of experiment: Transplantation of GFP SVZ explants: cell migration in vivo. Further details: species or system mouse. The procedure:
100 μm diameter explants of 1-day-old GFP mice SVZ were incubated fifteen minutes in DMEM supplemented with 10% fetal bovine serum in presence of 0.01 M of p65 or reverse peptide and stereotaxically grafted (0.5 μl) into six weeks old mice SVZ as described in Lois and Alvarez-Buylla (Science, 1994, 264, 1145-1 148). Three or four days after the graft, animals were perfused intracardiacally with a 4% paraformaldehyde solution in PBS. Brains were dissected out, postfixed, cryoprotected, and freezed in isopentane. Sagittal serial sections (12 μm) were cut with a Leica microtome and immunostained as described above. GFP cells arriving in the olfactory bulb after three days were observed using UV fluorescence with a 40× objective (Axioscope, ZEISS) and counted on two different experiments (four animals per condition). The significance of the difference between the two conditions was calvalated by Student's t test.
The effect of PSA mimetic peptides on cell migration in vivo was analysed by grafting tissue and evaluating migration of SVZ cells. Small pieces of SVZ tissue (100 μm diameter) from 1-day-old GFP mice were grafted in the SVZ area of adult mice, in the presence of p65, p65 reverse peptide or in the absence of peptide. The results are illustrated in FIG. 8.

Assay [3] deals with Glial Fibrillary acidic Protein (GFAP) expression. Put plainly: Reactive gliosis after spinal cord injury (GFAP staining). It counts as in vivo, mouse. The note with it: D5 following surgery. The procedure:
At D5, lesioned animals which received either p65 (n=3) or reversed p65 (n=3) were transcardiacally perfused. Spinal cords were sectioned in the sagittal plane at 20 μm intervals in blocks of 10 mm length at the lesion site. To examine lesion extent, Nissl staining was performed in series of 1-in-6 sections in all animals. Series of 1-in-3 sections were stained with the MenB anti-PSA (mouse IgM) and/or anti-GFAP (mouse IgG) antibodies.
To assess the effect of the peptide, quantification of the Glial Fibrillary acidic Protein (GFAP) expression as an index of reactive gliosis, was undertaken in a subset of animals taken D5 following surgery. These animals were selected in a blinded manner for quantification. 3 p65 (10 slices per animal) and 3 p65-reverse (10 slices per animal) animals were analyzed. Double-labelling was performed with MenB anti-PSA antibody. Quantification was also performed in a blinded manner.

Regarding CSSVTAWTTGCG [p65], the “Axon guidance and fasciculation in retina in vivo” value in the assay on chick retina axons is “axons guidance and fasciculation defects”. Besides, in the assay on MenB anti-PSA antibody (FIG. 12C), the “Recognition of PSA-NCAM by MenB after pre-incubation with peptide” value is recorded as “did not prevent recognition of PSA-NCAM”. Besides, the “Antibody specificity of peptide binding (30H12 versus MenB)” value with MenB anti-PSA antibody (in words) was “bind only to 30H12”. The “Rate of migration of the neuronal precursors compared to the corresponding control peptide” value in assay [1] is given as “significant increase”. Moreover, the “Rate of migration of the neuronal precursors and chain-like arrangement” value in assay [1] (SVZ explants in Matrigel, FIG. 4) is “increases the rate of migration”. Further, the “Migration of precursors from NCAM −/− mice” value in assay [1] (SVZ explants of NCAM −/− mice, FIG. 6) is listed as “did not reverse the impaired migration”. Besides, the “Concentration from which the optimal effect on cell migration is observed” value in assay [1] (dose-response curve) is at least 0.4 µM. Besides, the “PSA-dependence of the migration effect” value in assay [1] (with endo N treatment) was “abolished by endo N treatment”. Moreover, the “Increase of the number of GFP positive cells present in the olfactory bulb by comparison with the control” value in assay [2] (3 days after the graft) is 17 times. For the same sequence, the “Number of GFP positive cells migrating to the olfactory bulb” value in assay [2] (by comparison with the control, from 3 days post-engraftment) is recorded as “increases significantly”. For the same sequence, the “Reduction of reactive gliosis (GFAP staining) compared with reverse p65-treatment” value in assay [3] is listed as 40%.

Consider DSPLVPFIDFHP [p21], for which, in assay [1], the “Rate of migration of the neuronal precursors compared to the corresponding control peptide” value is given as “significant decrease”.
